# US20150133401A1, “COMBINATION THERAPY INVOLVING A VASCULAR DISRUPTING AGENT AND AN AGENT WHICH TARGETS HYPOXIA” (BIONOMICS LIMITED, priority 2012, published 2015)
# Key:
# [1] = system: tumour endothelial cells (activated) and normal endothelial cells (quiescent); assay: Selectivity between activated (tumour) and quiescent (normal) endothelial cells; type: cell-based
# From the text: An important aspect of the compounds of formulae I, Ia, Ib, II and III is the combination of the specific C-6 and C-7 substituents together with the C-2 Q-group (especially C-2 methyl) which appears to confer greater potency and selectivity when compared to other structurally related TPI compounds. In these compounds selectivity is not simply reliant on the predisposition of tumour vasculature towards collapse when challenged with the VDA but on a capacity of the VDA to distinguish between tumour endothelial cells and normal endothelial cells. Normal endothelial cells, found in healthy tissues, are in a “quiescent” state and tumour endothelial cells are in an “activated” state.
# [2] = system: RENCA renal tumours; assay: Vascular shutdown and hypoxia response markers in RENCA renal tumours; type: in vivo
# [3] = system: RENCA orthotopic tumour; assay: TUNEL assay of necrosis in RENCA orthotopic tumour sections; type: in vivo, Balb/c mice; conditions: 4 hours after dosing BNC105 on Day 9; Bortezomib 0.5 mg/kg iv Days 1, 5, 8; BNC105 32 mg/kg iv Days 2 and 9
# Method: RENCA orthotopic tumour bearing kidneys from Balb/c mice were photographed 4 hours after dosing BNC105 on Day 9 of treatment (Bortezomib 0.5 mg/kg iv Days 1, 5, 8, BNC105 32 mg/kg iv Days 2 and 9). Formalin fixed and paraffin embedded sections were stained using a TUNEL assay (Roche) to visualize cell necrosis.
# [4] = system: RENCA (VHL wildtype) orthotopic tumour; assay: Tumour growth inhibition by weight of RENCA orthotopic tumour bearing kidneys; type: in vivo, Balb/c mice; conditions: kidneys weighed on Day 10 of treatment; Pazopanib 30 mg/kg p.o. daily, BNC105 16 mg/kg i.v. Days 2 and 9; FIG. 3
# Method: FIG. 3 Right kidney weight (mg)±SEM of mice bearing RENCA kidney tumours treated with BNC105P, Pazopanib or BNC105P+Pazopanib.
# RENCA (VHL wildtype) orthotopic tumour bearing kidneys from Balb/c mice were weighed on Day 10 day of treatment (Pazopanib 30 mg/kg, p.o. Daily, BNC105 16 mg/kg i.v. Days 2 and 9).
# [5] = system: tumor mass; assay: Histological changes caused by BNC105 anti-tumor action (tumor necrosis); type: in vivo; conditions: histology; peripheral regions remain viable
# From the text: Based on investigations on the histological changes caused by BNC105 anti-tumor action, it was established that >95% of the tumor mass becomes necrotic, while peripheral regions remain viable. […] Among these is the angiogenesis growth factor VEGF. The present inventors sought to investigate the potential therapeutic benefit of combining BNC105 with an inhibitor of the VEGF/VEGFR2 signalling pathway.
# [6] = system: Calu-6 lung carcinoma; assay: Tumour hypoxia / disruption of tumour vasculature in Calu-6 tumours; type: in vivo
# [7] = system: Colo205 colon carcinoma; assay: Tumour hypoxia / disruption of tumour vasculature in Colo205 tumours; type: in vivo
# [8] = system: DU-145 prostate carcinoma; assay: Tumour hypoxia / disruption of tumour vasculature in DU-145 tumours; type: in vivo
# [9] = system: RENCA (VHL wildtype) orthotopic tumour; assay: Immunohistochemistry of unfolded protein response markers in RENCA orthotopic tumour sections; type: in vivo, Balb/c mice; conditions: 24 hours after a single dose i.v. 32 mg/kg
# From the text: (Fast Red detection on hematoxylin)
# [10] = system: MDA-MB-231 breast carcinoma; assay: Tumour hypoxia / disruption of tumour vasculature in MDA-MB-231 tumours; type: in vivo
smiles,measurement,setting,value
"COc1cc(C(=O)c2c(C)oc3c(O)c(OC)ccc23)cc(OC)c1OC [BNC105, 2-Methyl-7-hydroxy-3-(3,4,5-trimethoxybenzoyl)-6-methoxybenzofuran]",potency against quiescent versus activated endothelial cells (selectivity),[1],show selectivity towards tumor endothelial cells (activated) over normal endothelial cells (quiescent)
same,vascular shutdown,[2],induced vascular shutdown
same,CXCL12 and MMP-9 levels,[2]; induced hypoxia,increase in CXCL12 and MMP-9
same,"GLUT1, HIF-1a, PERK, eIF2a and VEGF levels",[2]; on vascular shutdown,"increase GLUT1, HIF-1a, PERK, eIF2a and VEGF"
same,tumor necrosis (TUNEL staining),[3],Very little tumor necrosis
same,tumour growth inhibition,[4],21%
same,tumor mass that becomes necrotic,[5],> 95%
"COc1cc(C(=O)c2c(C)oc3c(OP(=O)([O-])[O-])c(OC)ccc23)cc(OC)c1OC.[Na+].[Na+] [BNC105P, Disodium 6-methoxy-2-methyl-3-(3,4,5-trimethoxybenzoyl)benzofuran-7-yl phosphate]",tumour hypoxia by disruption of tumour vasculature,[6],increase tumour hypoxia
same,tumour hypoxia by disruption of tumour vasculature,[7],increase tumour hypoxia
same,tumour hypoxia by disruption of tumour vasculature,[8],increase tumour hypoxia
same,unfolded protein response markers PERK and phosphorylation of eIF2α,[9],upregulation of unfolded protein response markers
same,tumour hypoxia by disruption of tumour vasculature,[10]; MDA-MB-231 breast carcinoma,increase tumour hypoxia
same,apoptotic cells,[10]; MDA-MB-231 tumours,increase in apoptotic cells
same,blood vessel integrity,[10]; MDA-MB-231 tumours,damage of blood vessel integrity
same,release of angiogenic growth factor VEGF,[10]; MDA-MB-231 tumours,release of the angiogenic growth factor VEGF
same,tumour endothelial cells,[10]; MDA-MB-231 tumours,destruction of tumour endothelial cells
"CC(C)C[C@H](NC(=O)[C@H](Cc1ccccc1)NC(=O)c1cnccn1)B(O)O [Bortezomib, reference compound]",tumor necrosis (TUNEL staining),[3],Very little tumor necrosis
"COc1ccc(/C=C\c2cc(OC)c(OC)c(OC)c2)cc1O [Combretastatin A4 (CA4), Combretastatin A4, reference compound]",potency against quiescent versus activated endothelial cells (selectivity),[1],equally potent against quiescent and activated endothelial cells
"Cc1ccc(Nc2nccc(N(C)c3ccc4c(C)n(C)nc4c3)n2)cc1S(N)(=O)=O [Pazopanib, reference compound]",tumour growth inhibition,[4],19%
